Consider 20 compounds from patent publication US6610677B2, “Pyrazole compounds useful as protein kinase inhibitors” (Vertex Pharmaceuticals Incorporated, priority 2000, dated 2003).

One data set has as its target T1, GSK-3β (AA 1-420) (Homo sapiens, UniProt P49841).
T1 construct: GSK-3β (AA 1-420)
Put plainly: Ki determination for the inhibition of GSK-3 (coupled enzyme system). In kind it is biochemical. The settings on record: 20 μM ATP, 300 μM peptide, 20 nM GSK-3β, 30° C. An outline of the steps:
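Pyruvate kinase/lactate dehydrogenase-coupled NADH assay with 20 nM GSK-3β (AA 1-420), 20 μM ATP, 300 μM phosphopeptide HSSPHQS(PO3H2)EDEEE in HEPES pH 7.5, 1.5% DMSO, 30 °C. Compound (12 points, 0.002–30 μM) preincubated 10 min before ATP start; Ki derived from 10-min rates versus inhibitor concentration.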

The target of another data set is T2, Aurora-2 (Homo sapiens, UniProt O14965).
T2 sequence (O14965 1-403): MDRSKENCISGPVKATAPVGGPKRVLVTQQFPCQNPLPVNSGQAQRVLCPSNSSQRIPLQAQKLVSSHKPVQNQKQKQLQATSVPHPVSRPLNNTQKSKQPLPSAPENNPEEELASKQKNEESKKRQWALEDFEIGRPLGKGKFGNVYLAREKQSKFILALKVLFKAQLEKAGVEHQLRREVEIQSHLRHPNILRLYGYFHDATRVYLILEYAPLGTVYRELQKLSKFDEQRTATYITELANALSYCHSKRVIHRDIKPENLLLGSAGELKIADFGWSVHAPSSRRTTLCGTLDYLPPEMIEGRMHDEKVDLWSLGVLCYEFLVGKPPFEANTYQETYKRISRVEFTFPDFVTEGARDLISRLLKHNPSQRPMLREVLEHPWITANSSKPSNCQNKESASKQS
Nature of the data set: Ki determination for the inhibition of Aurora-2 (coupled enzyme assay). The settings on record: 70 nM Aurora-2, peptide LRRASLG, 30° C. Format: biochemical. Put shortly:
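Ki came from reaction rates plotted against inhibitor concentration, with rates taken as A340 decrease over 5 min at 30° C. Enzyme (70 nM final) was added after 10 min compound preincubation; stock buffer held […], 800 μM LRRASLG, PK/LDH coupling, pH 7.5.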

The next data set has as its target T3, human Src kinase (Homo sapiens, UniProt P12931).
T3 construct: full length recombinant human Src kinase; purchased Upstate Biotechnology 14-117; host or cells: baculo viral cells (baculovirus expression system)
Put plainly: SRC inhibition assay (radioactivity-based or spectrophotometric assay). The following applies: assay A or B not specified. In kind it is biochemical. How it is done: The compounds were evaluated as inhibitors of human Src kinase using either a radioactivity-based assay or spectrophotometric assay. The compounds were assayed as inhibitors of full length recombinant human Src kinase (from Upstate Biotechnology, cat. no. 14-117) expressed and purified from baculo viral cells. […] P-0275). […] In a typical assay, all the reaction components with the exception of ATP were pre-mixed and aliquoted into assay plate wells. Inhibitors dissolved in DMSO were added to the wells to give a final DMSO concentration of 2.5%. The assay plate was incubated at 30° C. for 10 min before initiating the reaction with ^33P-ATP. After 20 min of reaction, the reactions were quenched with 150 μl of 10% trichloroacetic acid (TCA) containing 20 mM Na3PO4. The quenched samples were then transferred to a 96-well filter plate (Whatman, UNI-Filter GF/F Glass Fiber Filter, cat no. 7700-3310) installed on a filter plate vacuum manifold. Filter plates were washed four times with 10% TCA containing 20 mM Na3PO4 and then 4 times with methanol. 200 μl of scintillation fluid was then added to each well. The plates were sealed and the amount of radioactivity associated with the filters was quantified on a TopCount scintillation counter. The radioactivity incorporated was plotted as a function of the inhibitor concentration. The data was fitted to a competitive inhibition kinetics model to get the Ki for the compound. The ADP produced from ATP by the human recombinant Src kinase-catalyzed phosphorylation of poly Glu-Tyr substrate was quanitified using a coupled enzyme assay (Fox et al (1998) Protein Sci 7, 2249). In this assay one molecule of NADH is oxidised to NAD for every molecule of ADP produced in the kinase reaction. The disappearance of NADH can be conveniently followed at 340 nm. […] In a typical assay, all the reaction components with the exception of ATP were pre-mixed and aliquoted into assay plate wells. Inhibitors dissolved in DMSO were added to the wells to give a final DMSO concentration of 2.5%. […] The absorbance change at 340 nm with time, the rate of the reaction, was monitored on a molecular devices plate reader. The data of rate as a function of the inhibitor concentration was fitted to compettive inhibition kinetics model to get the Ki for the compound.

In general, Ki refers to the equilibrium dissociation constant of an inhibitor or competing ligand from its target. As usually defined, the melting point is the temperature, or range, at which the solid turns liquid.

Structures are written as SMILES. Where two headings read alike, the source gives them in different places. A value given as a limit tells only on which side of the number the result lay.

T1 sequence (P49841 whole entry, the tested form may be a part): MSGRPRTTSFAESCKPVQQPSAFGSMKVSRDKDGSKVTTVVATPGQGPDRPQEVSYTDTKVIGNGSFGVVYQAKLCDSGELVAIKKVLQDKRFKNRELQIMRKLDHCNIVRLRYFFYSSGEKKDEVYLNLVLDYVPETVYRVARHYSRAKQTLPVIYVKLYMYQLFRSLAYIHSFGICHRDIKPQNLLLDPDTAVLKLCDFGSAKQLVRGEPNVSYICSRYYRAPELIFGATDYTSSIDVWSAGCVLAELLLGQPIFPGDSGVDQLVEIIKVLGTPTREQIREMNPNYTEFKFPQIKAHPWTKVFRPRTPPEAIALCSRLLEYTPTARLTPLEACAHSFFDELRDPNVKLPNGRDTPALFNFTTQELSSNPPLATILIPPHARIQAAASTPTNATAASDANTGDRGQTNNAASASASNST
T3 sequence (P12931 whole entry): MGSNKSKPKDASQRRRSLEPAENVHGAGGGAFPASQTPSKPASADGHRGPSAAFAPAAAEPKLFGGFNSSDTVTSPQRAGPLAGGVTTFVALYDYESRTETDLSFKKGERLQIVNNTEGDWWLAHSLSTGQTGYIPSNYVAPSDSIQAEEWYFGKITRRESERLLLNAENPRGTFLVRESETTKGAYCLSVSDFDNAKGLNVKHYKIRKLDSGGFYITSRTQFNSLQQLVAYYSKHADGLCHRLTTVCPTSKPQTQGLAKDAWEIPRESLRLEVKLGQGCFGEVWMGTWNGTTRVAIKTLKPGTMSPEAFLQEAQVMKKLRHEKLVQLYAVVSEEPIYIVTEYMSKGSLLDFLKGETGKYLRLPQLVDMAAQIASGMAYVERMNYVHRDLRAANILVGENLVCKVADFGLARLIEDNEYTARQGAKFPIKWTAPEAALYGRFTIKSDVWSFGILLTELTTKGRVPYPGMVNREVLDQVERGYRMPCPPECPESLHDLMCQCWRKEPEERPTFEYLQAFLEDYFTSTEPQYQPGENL

Consider `Cc1cc(Nc2nc(-c3ccccc3)nc3ccccc23)[nH]n1` [III-31, (5-Methyl-2H-pyrazol-3-yl)-(2-phenyl-quinazolin-4-yl)-amine], for which the Ki at GSK-3β (AA 1-420), on Aurora-2 and on human Src kinase (read-out: Ki value on SRC) was under 100 nM in each case.

Turning to `Cc1cc(Nc2nc(-c3ccc(I)cc3)nc3ccccc23)[nH]n1` [III-32, [2-(4-Iodophenyl)-quinazolin-4-yl]-(5-methyl-2H-pyrazol-3-yl)-amine], the Ki on Aurora-2 and on human Src kinase (read-out: Ki value on SRC) was under 100 nM throughout.

Turning to `Cc1cc(Nc2nc(-c3ccc(Cl)c(Cl)c3)nc3ccccc23)[nH]n1` [III-33, [2-(3,4-Dichlorophenyl)-quinazolin-4-yl]-(5-methyl-2H-pyrazol-3-yl)-amine], the melting point was 274 °C. On GSK-3β (AA 1-420), this compound returned a Ki of under 100 nM. For the same compound, the inhibition constant Ki on Aurora-2 was under 100 nM. Besides, the Ki at human Src kinase (read-out: Ki value on SRC) is under 100 nM.

As for `Cc1cc(Nc2nc(-c3ccc(Br)cc3)nc3ccccc23)[nH]n1` [III-34, [2-(4-Bromophenyl)-quinazolin-4-yl]-(5-methyl-2H-pyrazol-3-yl)-amine], the melting point lay in the range of 262 to 265 °C. The compound also registered a Ki at GSK-3β (AA 1-420) of under 100 nM. The Ki at Aurora-2 is under 100 nM. The Ki at human Src kinase (read-out: Ki value on SRC) was under 100 nM.

Take `Cc1cc(Nc2nc(-c3ccc(Cl)cc3)nc3ccccc23)[nH]n1` [III-35, [2-(4-Chlorophenyl)-quinazolin-4-yl]-(5-methyl-2H-pyrazol-3-yl)-amine]: the melting point is over 300 °C. The inhibitory constant (Ki) on GSK-3β (AA 1-420) is under 100 nM. The compound also registered an inhibitory constant (Ki) at Aurora-2 of under 100 nM. The Ki at human Src kinase (read-out: Ki value on SRC) was under 100 nM.

As for `Cc1cc(Nc2nc(-c3ccc(C#N)cc3)nc3ccccc23)[nH]n1` [III-37, [2-(4-Cyanophenyl)-quinazolin-4-yl]-(5-methyl-2H-pyrazol-3-yl)-amine], the melting point came out at 263 °C. At GSK-3β (AA 1-420), the Ki is under 100 nM. The compound also gave an inhibitory constant (Ki) at Aurora-2 of under 100 nM. Further, the Ki on human Src kinase (read-out: Ki value on SRC) was under 100 nM.

For the compound `Cc1cc(Nc2nc(-c3cccc(I)c3)nc3ccccc23)[nH]n1` [III-38, [2-(3-Iodophenyl)-quinazolin-4-yl]-(5-methyl-2H-pyrazol-3-yl)-amine], the melting point fell in the range of 234 to 235 °C. At GSK-3β (AA 1-420), the Ki is under 100 nM. At Aurora-2, this compound yielded a Ki of under 100 nM. Moreover, the Ki at human Src kinase (read-out: Ki value on SRC) was under 100 nM.

As for `CCSc1ccc(-c2nc(Nc3cc(C)n[nH]3)c3ccccc3n2)cc1` [III-39, [2-(4-Ethylsulfanylphenyl)-quinazolin-4-yl]-(5-methyl-2H-pyrazol-3-yl)-amine], the melting point fell in the range of 229 to 231 °C. At GSK-3β (AA 1-420), this compound displayed a Ki of under 100 nM. The Ki at Aurora-2 is under 100 nM. In addition, on human Src kinase (read-out: Ki value on SRC), the inhibition constant (Ki) was under 100 nM.

On to `Clc1ccc(-c2nc(Nc3cc(C4CC4)n[nH]3)c3ccccc3n2)cc1` [III-42, [2-(4-Chlorophenyl)-quinazolin-4-yl]-(5-cyclopropyl-2H-pyrazol-3-yl)-amine], for which the Ki at GSK-3β (AA 1-420), at Aurora-2 and on human Src kinase (read-out: Ki value on SRC) was under 100 nM in each case.

For `Cc1cc(Nc2nc(-c3ccc(N(C)C)cc3)nc3ccccc23)[nH]n1` [III-44, [2-(4-Dimethylaminophenyl)-quinazolin-4-yl]-(5-methyl-2H-pyrazol-3-yl)-amine], the Ki on GSK-3β (AA 1-420) is 100 to 1000 nM; at Aurora-2, under 100 nM; at human Src kinase (read-out: Ki value on SRC) it was under 100 nM.

Compound `COc1cccc(-c2nc(Nc3cc(C)n[nH]3)c3ccccc3n2)c1` [III-45, [2-(3-Methoxyphenyl)-quinazolin-4-yl]-(5-methyl-2H-pyrazol-3-yl)-amine] came in with a melting point of 226 °C. Moreover, the Ki at GSK-3β (AA 1-420) is under 100 nM. Besides, at Aurora-2, the Ki is under 100 nM. For the same compound, the Ki at human Src kinase (read-out: Ki value on SRC) is under 100 nM.

Consider `Cc1cc(Nc2nc(-c3ccc(-c4ccccc4)cc3)nc3ccccc23)[nH]n1` [III-47, (2-Biphenyl-4-yl-quinazolin-4-yl)-(5-methyl-2H-pyrazol-3-yl)-amine], for which the Ki at GSK-3β (AA 1-420), at Aurora-2 and on human Src kinase (read-out: Ki value on SRC) was under 100 nM in each case.

With `C#Cc1ccc(-c2nc(Nc3cc(C)n[nH]3)c3ccccc3n2)cc1` [III-48, [2-(4-Ethynylphenyl)-quinazolin-4-yl]-(5-methyl-2H-pyrazol-3-yl)-amine], the Ki on GSK-3β (AA 1-420), at Aurora-2 and on human Src kinase (read-out: Ki value on SRC) was under 100 nM throughout.

`C#Cc1cccc(-c2nc(Nc3cc(C)n[nH]3)c3ccccc3n2)c1` [III-49, [2-(3-Ethynylphenyl)-quinazolin-4-yl]-(5-methyl-2H-pyrazol-3-yl)-amine] gave a melting point of 204 to 207 °C. On GSK-3β (AA 1-420), this compound returned a Ki of under 100 nM. This compound showed a Ki at Aurora-2 of under 100 nM. In addition, on human Src kinase (read-out: Ki value on SRC), the Ki is under 100 nM.

The compound `CCc1cc(Nc2nc(-c3ccccc3)nc3ccccc23)[nH]n1` [III-65] came in with a melting point of 221 to 222 °C. Further, the Ki on GSK-3β (AA 1-420) was under 100 nM. The Ki on Aurora-2 was under 100 nM. Besides, the Ki on human Src kinase (read-out: Ki value on SRC) is under 100 nM.

`CCCc1cc(Nc2nc(-c3ccccc3)nc3ccccc23)[nH]n1` [III-66, (2-Phenyl-quinazolin-4-yl)-(5-propyl-2H-pyrazol-3-yl)-amine] showed a melting point of 204 to 205 °C. Also, the Ki on GSK-3β (AA 1-420) is under 100 nM. Further, on Aurora-2, the Ki was under 100 nM. The Ki at human Src kinase (read-out: Ki value on SRC) was under 100 nM.

Compound `c1ccc(-c2nc(Nc3cc(C4CCCC4)n[nH]3)c3ccccc3n2)cc1` [III-70, (5-Cyclopentyl-2H-pyrazol-3-yl)-(2-phenyl-quinazolin-4-yl)-amine] came in with a melting point of 240 to 241 °C. Also, the Ki on GSK-3β (AA 1-420) is under 100 nM. The Ki on Aurora-2 is under 100 nM. Besides, the Ki on human Src kinase (read-out: Ki value on SRC) was under 100 nM.

Regarding `OCCCc1cc(Nc2nc(-c3ccccc3)nc3ccccc23)[nH]n1` [III-76, [5-(3-Hydroxyprop-1-yl)-2H-pyrazol-3-yl]-(2-phenyl-quinazolin-4-yl)-amine], the melting point was 164 to 165 °C. On GSK-3β (AA 1-420), this compound registered a Ki of under 100 nM. The compound also returned a Ki at Aurora-2 of under 100 nM. Also, the Ki at human Src kinase (read-out: Ki value on SRC) was under 100 nM.

As for `c1ccc(COCCCc2cc(Nc3nc(-c4ccccc4)nc4ccccc34)[nH]n2)cc1` [III-78, [5-(3-Benzyloxyprop-1-yl)-2H-pyrazol-3-yl]-(2-phenyl-quinazolin-4-yl)-amine], the melting point fell in the range of 177 to 178 °C. The compound also gave a Ki at GSK-3β (AA 1-420) of 100 to 1000 nM. At Aurora-2, the Ki is under 100 nM. Besides, on human Src kinase (read-out: Ki value on SRC), the Ki was under 100 nM.

As for `NCCCc1cc(Nc2nc(-c3ccccc3)nc3ccccc23)[nH]n1` [III-79, [5-(3-Aminoprop-1-yl)-2H-pyrazol-3-yl]-(2-phenyl-quinazolin-4-yl)-amine], the melting point lay within 205 to 207 °C. The same compound had a Ki on Aurora-2 of 1000 to 20000 nM. The Ki on human Src kinase (read-out: Ki value for SRC) is 1000 to 6000 nM.
